# According to patent publication US11590116B2 (THERAVANCE BIOPHARMA R&D IP, LLC, priority 2019, dated 2023):
# Experiments:
# [1] = molecular target: T1, recombinant human ALK5 (TGF-βR1) protein (Homo sapiens, UniProt P36897); experiment: Biochemical ALK5 (TGF-βR1) assay to measure pKi (LANCE Ultra ULight kinase assay); settings: apparent pKi from pIC50 by Cheng-Prusoff, read-out: ALK5 pKi (converted)
# T1 construct: purchased Life Technologies PR9075A
# T1 sequence (P36897 34-503): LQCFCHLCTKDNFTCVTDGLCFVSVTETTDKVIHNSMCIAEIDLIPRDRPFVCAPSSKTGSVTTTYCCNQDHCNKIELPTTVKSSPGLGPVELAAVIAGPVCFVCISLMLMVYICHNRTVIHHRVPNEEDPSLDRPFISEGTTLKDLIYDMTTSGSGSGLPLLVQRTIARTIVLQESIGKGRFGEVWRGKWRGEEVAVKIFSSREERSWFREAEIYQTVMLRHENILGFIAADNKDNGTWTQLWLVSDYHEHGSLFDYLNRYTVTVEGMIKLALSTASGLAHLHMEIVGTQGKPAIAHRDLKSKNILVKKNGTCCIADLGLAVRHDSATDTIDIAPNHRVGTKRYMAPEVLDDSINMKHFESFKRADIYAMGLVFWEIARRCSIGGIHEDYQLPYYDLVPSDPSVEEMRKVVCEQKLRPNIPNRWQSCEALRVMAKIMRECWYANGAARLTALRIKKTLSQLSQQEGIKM
# Summary of the method: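 Dose range 10 μM–25 pM; enzyme + compound 60 min RT; ATP added (5× stock 125 μM, 2 mM DTT); 60 min 37 °C; stop with EDTA + Eu anti-phospho-Topo IIα Thr1342 Ab; TR-FRET ex 320/340, em 665 nm. 4-param pIC50 → pKi (Cheng-Prusoff).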
# [2] = test system: TGF-β-stimulated SMAD3 phosphorylation in BEAS-2B cells; experiment: Cellular ALK5 potency assay, inhibition of TGF-β stimulated pSMAD3 formation in BEAS-2B cells; format: cell-based; settings: Homo sapiens; inhibition of TGF-β stimulated pSMAD3 formation, BEAS-2B cells; read-out: BEAS2B pIC50 (converted)
# Summary of the method: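 AlphaLISA pSMAD3 read-out, beads incubated overnight. Human BEAS-2B cells: 1 h compound preincubation (37 °C, 5% CO2), then 30 min TGF-β at 10 ng/mL final, immediate lysis. Values are pIC50 relative to stimulated, compound-free baseline.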
SMILES,Ki [1],IC50 [2]
"Cc1cccc(-c2nn3c(c2-c2ccc4ncc(-c5cn[nH]c5)cc4n2)CNCC3)n1 [Compound 115, 2-(2-(6-Methylpyridin-2-yl)-4,5,6,7-tetrahydropyrazolo[1,5-a]pyrazin-3-yl)-7-(1H-pyrazol-4-yl)-1,5-naphthyridine]",0.0398 to 0.316 nM,25.1 to 158 nM
"Cc1cccc(-c2n[nH]cc2-c2ccc3ncc(-c4cn5c(n4)CNCC5)cc3n2)n1 [Compound 75, 2-(3-(6-Methylpyridin-2-yl)-1H-pyrazol-4-yl)-7-(5,6,7,8-tetrahydroimidazo[1,2-a]pyrazin-2-yl)-1,5-naphthyridine]",< 0.0316 nM,25.1 to 158 nM
"Cc1cccc(-c2[nH]cnc2-c2ccc3ncc(C4=CCC(NCc5ccccc5)CC4)cc3c2)n1 (centres unmarked) [Compound 252, N-benzyl-4-[6-[5-(6-methyl-2-pyridyl)-1H-imidazol-4-yl]-3-quinolyl]cyclohex-3-en-1-amine]",< 0.0316 nM,25.1 to 158 nM
"CCN1CCN(c2cnc3ccc(-c4c[nH]nc4-c4cccc(C)n4)nc3c2)CC1 [Compound 390, 7-(4-ethylpiperazin-1-yl)-2-[3-(6-methyl-2-pyridyl)-1H-pyrazol-4-yl]-1,5-naphthyridine]",0.0398 to 0.316 nM,25.1 to 158 nM
"Cc1cccc(-c2[nH]cnc2-c2ccc3ncc(-c4cnn(C5CCCNC5)c4)cc3c2)n1 (centres unmarked) [Compound 405, 6-[5-(6-methyl-2-pyridyl)-1H-imidazol-4-yl]-3-[1-(3-piperidyl)pyrazol-4-yl]quinoline]",< 0.0316 nM,25.1 to 158 nM
"CNCCn1cc(-c2cnc3ccc(-c4nc[nH]c4-c4cccc(C)n4)nc3c2)cn1 [Compound 408, N-methyl-2-[4-[6-[5-(6-methyl-2-pyridyl)-1H-imidazol-4-yl]-1,5-naphthyridin-3-yl]pyrazol-1-yl]ethanamine]",0.0398 to 0.316 nM,25.1 to 158 nM
"Cc1cccc(-c2n[nH]cc2-c2ccc3ncc(CCC(=O)N4CCOCC4)cc3n2)n1 [Compound 385, 3-[6-[3-(6-methyl-2-pyridyl)-1H-pyrazol-4-yl]-1,5-naphthyridin-3-yl]-1-morpholino-propan-1-one]",0.398 to 3.16 nM,25.1 to 158 nM

# Further lines, with some results ahead:
Ki [1],SMILES,IC50 [2]
0.0398 to 0.316 nM,"FC(F)c1cccc(-c2n[nH]cc2-c2ccc3ncc(N4CCCNCC4)cc3n2)n1 [Compound 446, 7-(1,4-diazepan-1-yl)-2-[3-[6-(difluoromethyl)-2-pyridyl]-1H-pyrazol-4-yl]-1,5-naphthyridine]",25.1 to 158 nM
< 0.0316 nM,"Cc1nc(-c2n[nH]cc2-c2ccc3ncc(-c4cnn(C5CCCNC5)c4)cc3c2)ccc1F (centres unmarked) [Compound 458, 6-[3-(5-fluoro-6-methyl-2-pyridyl)-1H-pyrazol-4-yl]-3-[1-(3-piperidyl)pyrazol-4-yl]quinoline]",< 20 nM
< 0.0316 nM,"Cc1cccc(-c2[nH]cnc2-c2ccc3ncc(-c4cc(C(=O)OCC5CNC5)cs4)cc3c2)n1 [Compound 1070, azetidin-3-ylmethyl 5-[6-[5-(6-methyl-2-pyridyl)-1H-imidazol-4-yl]-3-quinolyl]thiophene-3-carboxylate]",25.1 to 158 nM
0.0398 to 0.316 nM,"Cc1cccc(-c2[nH]cnc2-c2ccc3ncc(-c4ccc(C(=O)O[C@@H]5CCN(C)C5)s4)cc3c2)n1 [Compound 1009, (R)-1-methylpyrrolidin-3-yl 5-(6-(5-(6-methylpyridin-2-yl)-1H-imidazol-4-yl)quinolin-3-yl)thiophene-2-carboxylate]",25.1 to 158 nM
0.398 to 3.16 nM,"Cc1cccc(-c2n[nH]cc2-c2ccc3nccc(NC(=O)CCN4CCN(C(C)C)CC4)c3n2)n1 [Compound 843, 3-(4-isopropylpiperazin-1-yl)-N-[6-[3-(6-methyl-2-pyridyl)-1H-pyrazol-4-yl]-1,5-naphthyridin-4-yl]propanamide]",25.1 to 158 nM
0.0398 to 0.316 nM,"Cc1cccc(-c2n[nH]cc2-c2ccc3ncc(C4=CCNC4)cc3n2)n1 [Compound 588, 7-(2,5-dihydro-1H-pyrrol-3-yl)-2-[3-(6-methyl-2-pyridyl)-1H-pyrazol-4-yl]-1,5-naphthyridine]",< 20 nM
